Source: US20250381183A1, “TARGETING S100A9-ALDH1A1-RETINOIC ACID SIGNALING TO SUPPRESS BRAIN RELAPSE IN EGFR-MUTANT LUNG CANCER” (The Trustees of Columbia University in the City of New York, priority 2022, published 2025)

Assays:
RAR target gene STRA6 [1] = experiment: STRA6 expression by qRT-PCR in H1650-Tr-BrM cells; assay type: cell-based, human; conditions: two days; for inhibition of retinol-induced STRA6 expression: 5 μM retinol and 5 μM antagonist
Description: (§1) FIG. 13A-FIG. 13B: STRA6 expression was determined by qRT-PCR analysis of Tr-BrM cells from the PC9 model (13(a)) and H1650 model (13(b)), which were treated with either DMSO, retinol or retinol plus different retinoic acid receptor antagonists. Cells were cultured for two days in serum-free RPMI medium with DMSO alone, with 5 μM retinol alone, or medium with both 5 μM retinol and 5 μM antagonists (either the RAR-α antagonist BMS-195614, the RAR-γ antagonist MM-11253, or the pan-RAR antagonist AGN-194310). After two days of culturing, cells were washed and collected for RNA analysis. GAPDH was measured as an internal control. […] For the PC9 model in 13(a), n=8 for vehicle; n=5 for retinol; n=3 for retinol plus the RAR-alpha inhibitor (“RAR-α-inh.”); n=3 for retinol plus the RAR-gamma inhibitor (“RAR-γ-inh.”); n=4 for retinol plus the pan-RAR inhibitor (“pan-RAR-inh.”). For the H1650 model in 13(b), n=7 for all groups.

H1975 = experiment: Cell viability assay, sensitivity to pan-RAR inhibition, H1975; assay type: cell-based, human; conditions: H1975, lacks S100A9 and ALDH1A1 expression
Description: (§2) FIG. 13C: Cell viability assay for comparing in-vitro sensitivity of the indicated cell lines to pan-RAR-inhibition (AGN194310, abbreviated as “AGN”). Cell viability values are normalized to the vehicle (DMSO)-treated control, presented as the mean values±SEM, and representative of three independent experiments. P-values were determined by two-way ANOVA with Tukey's test.

RAR target gene STRA6 [2] = experiment: STRA6 expression by qRT-PCR in PC9-Tr-BrM cells; assay type: cell-based, human; conditions: two days; for inhibition of retinol-induced STRA6 expression: 5 μM retinol and 5 μM antagonist
Description: as §1

H1650-derivatives = experiment: Lung orthotopic (intrathoracic) implantation, H1650-derivatives, AGN194310 treatment; assay type: in vivo, mice; conditions: H1650-derived, directly implanted in the lung, treated 2 weeks
Description: FIG. 12K: Schematic representation of the experimental protocol for lung orthotopic injections. H1650-Tr-BrM-lung derivatives stably expressing either Lenti-Con, S100A9i, ALDH1A1i, or S100A9i plus ALDH1A1 o/e were injected in the lung (intrathoracic injections, labeled as “lung orthotopic injection” in the figure). Mice were euthanized at 21 days post tumor-cell injection for analysis.
FIG. 13P-FIG. 13Q: Violin plots depicting normalized photon flux of lung measured by bioluminescence imaging of mice. […] For panel (p): n=8 for Veh, and n=11 for Pan-RARi. For panel (q): n=7 for Veh, and n=8 for Pan-RARi.

HCC4006 = experiment: Cell viability assay, sensitivity to pan-RAR inhibition, HCC4006; assay type: cell-based, human; conditions: HCC4006, lacks S100A9 and ALDH1A1 expression
Description: as §2

PC9-derivatives = experiment: Lung orthotopic (intrathoracic) implantation, PC9-derivatives, AGN194310 treatment; assay type: in vivo, mice; conditions: PC9-derived, directly implanted in the lung, treated 2 weeks
PC9-Tr-BrM cells [3] = experiment: Treatment of PC9-Tr-BrM brain metastasis in mice with AGN194310 and/or osimertinib; conditions: 0.5 mg/kg body weight/day, five days per week from day 25 to 7 weeks, vs vehicle and osimertinib alone
H1650-Tr-BrM cells [4] = experiment: Treatment of H1650-Tr-BrM brain metastasis in mice with AGN194310 and/or osimertinib; conditions: 0.5 mg/kg body weight/day, five days per week from day 25 to 7 weeks, vs vehicle and osimertinib alone
phospho-EGFR (Tyr1068) [5] = experiment: phospho-EGFR immunostaining of brain sections, H1650-BrM model; assay type: in vivo, immunodeficient mice; conditions: osimertinib 5 mg/kg/day vs vehicle
Description: FIG. 9D: Brain sections from mice injected with H1650-BrM cells described in FIG. 8g-h were immunostained using an antibody against phospho-EGFR (Tyr1068). […] Mice were then euthanized, and brain tissues were subsequently processed for histological analysis. Representative images of immunohistochemical staining for phospho-EGFR in brain sections are shown. Dotted lines surround the location of metastatic cells in the brain. Scale bars, 100 μm.
FIG. 9E: The pEGFR-stained brain sections from the H1650-derived model described in panel (d) were quantitated using automated Qu-Path software to count pEGFR-positive cancer cells that were identified by setting a threshold for signal intensity (1+). Data are represented as mean values±SEM.

phospho-EGFR (Tyr1068) [6] = experiment: phospho-EGFR immunostaining of brain sections, PC9-BrM model; assay type: in vivo, immunodeficient mice; conditions: osimertinib 5 mg/kg/day vs vehicle
Description: FIG. 2B: Brain sections from mice injected with PC9-BrM cells described in FIG. 1a-b were immunostained using an antibody against phospho-EGFR (Tyr1068). […] The endpoint for vehicle-treated mice was two months post tumor-cell injection (“Vehicle”). The endpoint for osimertinib-treated mice was 4 months post tumor-cell injection for micrometastases (“Micromet”) and 8 months post tumor-cell injection for relapsed metastatic lesion (“Relapsed Met”). For the osimertinib treatment group, mice were administered osimertinib by oral gavage. At 6 hours post treatment, mice were euthanized, and brain tissues were subsequently processed for histological analysis. Representative images of immunohistochemical staining for phospho-EGFR in brain sections are shown. Arrows point to, and dotted line surrounds, the location of metastatic cells in the brain.
FIG. 2C: The pEGFR-immunostained brain sections described in panel (b) were quantitated using automated Qu-Path software to count pEGFR-positive cancer cells that were identified by setting a threshold for signal intensity (1+).

H1650-Tr-BrM cells [7] = experiment: H1650-Tr-BrM brain metastasis mouse model, vehicle or osimertinib; assay type: in vivo, immunodeficient mice; conditions: H1650-Tr-BrM-injected mice
Description: . Data were analyzed using the log-rank test: χ2=2.541, d.f.=1, p-value not significant (ns), n=6 for vehicle-treated mice, and n=4 for osimertinib-treated mice.
. Arrow points to the location of metastatic cells in the brain. Mice were euthanized at 60 days post tumor-cell injection. Scale bars, 200 μm.
FIG. 8H: Quantitative analysis of the percentage of brain tissue sections covered by metastasis from the experiment described in panel (g). […]; We then isolated brain metastatic cells from the osimertinib-treated mice (designated H1650-Tr-BrM), injected them into the arterial circulation of naive immunodeficient mice and treated the mice with either vehicle or osimertinib.

[8] = tested on: phospho-EGFR (Tyr1068), phospho-ERK; conditions: H1650-BrM and H1650-Tr-BrM, 6 hours post treatment, similar in both
Description: Antibodies against phospho-EGFR (Tyr1068), phospho-ERK, total-EGFR, total-ERK and β-actin (loading control) were used. Data are representative of three independent experiments.

EGFR-mutant lung cancer = conditions: cited from earlier work
PC9-Tr-BrM cells [9] = experiment: PC9-Tr-BrM (osimertinib-refractory) brain metastasis mouse model, vehicle or osimertinib; assay type: in vivo, immunodeficient mice; conditions: PC9-Tr-BrM-injected mice, osimertinib vs vehicle
Description: FIG. 1E: Kaplan-Meier plot for brain-metastasis-progression-free survival of mice injected with PC9-Tr-BrM cells followed by treatment with either vehicle or osimertinib. Data were analyzed using the log-rank test: χ2=1.325, d.f.=1, p-value not significant (ns), n=20 for vehicle-treated mice and 17 for osimertinib-treated mice.
Mice were euthanized at 7 weeks post tumor-cell injection. Scale bars, 200 μm.
To understand the underlying mechanisms of brain relapse using this model, we isolated brain metastatic cells from the relapsed brain of osimertinib-treated mice and designated them PC9-Tr-BrM (Treated Brain Metastatic, FIG. 1d).

[10] = tested on: phospho-EGFR (Tyr1068), phospho-ERK (Thr202/Tyr204); conditions: PC9-BrM and PC9-Tr-BrM, 6 hours post-treatment, similar in both
Description: Antibodies against phospho-EGFR (Tyr1068), phospho-ERK (Thr202/Tyr204), total-EGFR, total-ERK and □-actin (loading control) were used. Data are representative of three independent experiments.

[11] = serum-free media, 5 μM retinol alone vs DMSO

For `CCc1ccc(C2=CC(C)(C)Sc3ccc(C#Cc4ccc(C(=O)O)cc4)cc32)cc1` [AGN-194310], the “inhibition of retinol-induced STRA6 expression” value (RAR target gene STRA6 [1]) was “dramatically reduced”, the loss of viability (H1975) was “did not show dose-dependent loss of viability” and the “inhibition of retinol-induced STRA6 expression” value (RAR target gene STRA6 [2]) was “dramatically reduced”. For the same compound, the “lung lesions (normalized photon flux)” value (H1650-derivatives) was “modestly reduced”, the loss of viability (HCC4006) was “did not show dose-dependent loss of viability” and the “lung lesions (normalized photon flux)” value (PC9-derivatives) was “modestly reduced”. For the same compound, the “brain metastasis (bioluminescence imaging and CK7 metastasis surface area)” value (PC9-Tr-BrM cells [3]) was “striking reduction” and the “brain metastasis (bioluminescence imaging and CK7 metastasis surface area)” value (H1650-Tr-BrM cells [4]) was “striking reduction”.

With `CC1(C)CC=C(c2cnc3ccccc3c2)c2cc(C(=O)Nc3ccc(C(=O)O)cc3)ccc21` [BMS195614] the “inhibition of retinol-induced STRA6 expression” value (RAR target gene STRA6 [1]) was “only modestly inhibited” and the “inhibition of retinol-induced STRA6 expression” value (RAR target gene STRA6 [2]) was “only modestly inhibited”.

With `CC1(C)CCC(C)(C)c2cc(C3(c4ccc5cc(C(=O)O)ccc5c4)SCCS3)ccc21` [MM11253] the “inhibition of retinol-induced STRA6 expression” value (RAR target gene STRA6 [1]) was “only modestly inhibited” and the “inhibition of retinol-induced STRA6 expression” value (RAR target gene STRA6 [2]) was “only modestly inhibited”.

For `C=CC(=O)Nc1cc(Nc2nccc(-c3cn(C)c4ccccc34)n2)c(OC)cc1N(C)CCN(C)C` [osimertinib], the “p-EGFR in brain metastatic lesions” value (phospho-EGFR (Tyr1068) [5]) was “significantly reduced”, the “p-EGFR in micro- and relapsed-metastatic brain lesions” value (phospho-EGFR (Tyr1068) [6]) was “significantly reduced” and the brain-metastasis-progression-free survival (H1650-Tr-BrM cells [7]; osimertinib vs vehicle) was “no longer prolonged”. The “mice with rapid progression to the brain” value (H1650-Tr-BrM cells [7]; vehicle or osimertinib) was 100%, the “inhibition of EGFR and ERK phosphorylation” value [8] was “dose-dependent inhibition” and the “median progression-free survival (PFS)” value (EGFR-mutant lung cancer; first-line treatment, EGFR-mutant metastatic lung cancer patients) was 18.9 months. For the same compound, the “patients with CNS progression” value (EGFR-mutant lung cancer; lung cancer patients treated with osimertinib) was 20%, the brain-metastasis-progression-free survival (PC9-Tr-BrM cells [9]) was “no longer increased” and the “inhibition of EGFR and ERK phosphorylation” value [10] was “dose-dependent inhibition”.

In the case of retinal, the STRA6 expression (RAR target gene STRA6 [1]; [11]) is reported as “significantly induced” and the STRA6 expression (RAR target gene STRA6 [2]; [11]) is reported as “significantly induced”.
